# Results as given in US10100198B2, “Application of reduced dyes in imaging” (LI-COR, Inc., priority 2011, dated 2018).
# “And” between values parts separate entries of the source, which are not always exact repeats. Identical values can stand only once.
# How the values were obtained:
# [1] = UV/vis absorption and emission; assay type: physicochemical; settings: for Extinction Coefficient: in M-1·cm-1 (unit assumed)
# Experimental: Compound 1 (80 mg), 3-(4-carboxybutyl)phenylboronic acid (40 mg), and cesium carbonate (20 mg) are stirred into 1:1 water:ethanol (10 ml) under nitrogen at room temperature. Tetrakis(triphenylphosphine)palladium(0) (10 mg) is added to the reaction mixture. The mixture was refluxed for 4 hours, and the solvent and volatile compounds are evaporated under vacuum. The crude product is purified by flash chromatography on reverse-phase C18-functionalized silica by eluting with a 1:4 acetonitrile:water mixture. The purified product 3 has UV/vis absorption max of λMeOH=680 nm, ε=229,000; λPBS=676 nm, ε=239,000.
# Compound 7 (80 mg), 3-(2-carboxyethyl)phenylboronic acid (40 mg), and cesium carbonate (20 mg) were stirred into water (20 mL) under nitrogen at room temperature. Tetrakis(triphenylphosphine)palladium (0) (10 mg) were added to the reaction mixture. The mixture was refluxed for 4 h, and the solvent and volatile compounds then were evaporated under vacuum. The crude product was purified by flash chromatography on reverse-phase silica with an acetonitrile/water mixture as the eluent. The purified compound had λMeOH=680 nm, λPBS=672 nm, ε=160,000.
# HRP = biological target: T1, HRP (Armoracia rusticana, UniProt P00433); experiment: 800 HRP substrate test of DIR780F2-P, with and without enzyme, varied pH and Triton X-100; assay type: biochemical, horseradish; settings: two hours at ambient temperature
# T1 sequence (P00433 31-338): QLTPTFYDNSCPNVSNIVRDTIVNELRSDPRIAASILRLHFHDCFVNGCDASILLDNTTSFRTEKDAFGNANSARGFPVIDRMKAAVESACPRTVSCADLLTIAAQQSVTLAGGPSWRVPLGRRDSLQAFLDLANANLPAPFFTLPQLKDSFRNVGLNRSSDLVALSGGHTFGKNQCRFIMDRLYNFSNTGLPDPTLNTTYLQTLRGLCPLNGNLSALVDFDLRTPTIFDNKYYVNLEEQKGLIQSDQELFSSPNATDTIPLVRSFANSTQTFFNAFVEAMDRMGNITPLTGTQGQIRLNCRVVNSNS
# Excerpt: Their efficacies as 800 HRP substrates have been tested in the ELISA format.
# [2] = tested on: ROS generation in RAW264.7 macrophages; experiment: Imaging LPS-induced ROS generation in RAW264.7 macrophages by fluorescence microscope; assay type: cell-based, mouse; settings: RAW264.7 cells, 5 μM hydrocyanines, 30 min
# [3] = Cell permeability of reduced dyes; assay type: in vitro ADME
# [4] = Water solubility of reduced dyes; assay type: physicochemical
# β actin in A431 lysate = experiment: Western blot detection with chemifluorescent substrates, A431 lysate probed with mouse anti-β actin and HRP goat anti-mouse antibodies; design: species or system Human
# Excerpt: Use of H-IR780F2 and H-IRDye® 800CW for blot imaging was compared to a commercially-available 680 HRP ELISA substrate (see FIG. 15). 4-12% Bis-Tris gels were loaded with 2-fold, 7-point serial dilutions of A431 lysate (high conc.=[…]), electrophoresed, transferred to Odyssey Nitrocellulose, blocked with SeaBlock Blocking Buffer (with ProClin preservative). The blots were probed with mouse anti-β actin antibodies, followed by HRP goat anti-mouse antibodies (FIG. 15, A-D) or dye-conjugated goat anti-mouse antibodies (FIG. 15, E-F). Blots probed with HRP goat anti-mouse antibodies were incubated for 5 min with chemifluorescent substrates in buffer containing hydrogen peroxide. H-IRDye® 800CW and H-IR780F2 were tested at 10 μM with 50-200 μM H2O2. HRP 680 ELISA substrate was used according to published protocols (i.e., LI-COR product no. 926-34300).
# The basic workflow remains unchanged and therefore, the chemifluorescent substrate based analysis is amenable to other methods of protein analysis, such as ELISAs and protein arrays.
# [5] = biological target: T2, goat anti-mouse HRP-labeled antibody (GAM-HRP) (Armoracia rusticana, UniProt P00433); experiment: H-IR 780 / D-IR 780 as HRP substrate with HRP-labeled antibody in 96-well plate; assay type: biochemical, horseradish; settings: 10 μM substrate, HRP 800 Assay Buffer pH 3.0, 10 minutes ambient temperature, Odyssey 800 nm channel
# T2 sequence (P00433 31-338 limits assumed): T1 sequence (P00433 31-338)
# Excerpt: Reduced hydrocyanine dyes (H- or D-versions) are nonfluorescent, but turn fluorescent upon oxidation. This activation property was exploited to utilize the reduced hydrocyanine dyes as horseradish peroxidase (HRP) substrates. In certain embodiments of an enzymatic assay, the hydrocyanines can be oxidized by HRP using hydrogen peroxide as the oxidizing agent, yielding a fluorescent signal. In some preferred embodiments, this fluorescent signal's wavelength can range from 530-900 nm depending on the structure of the dye.
# HRP 800 Assay Buffer: The HRP 800 Assay Buffer contains 60 μM Hydrogen Peroxide, 0.2 μg/mL Acetanilide, 0.02% Triton X−100, in 100 mM Citrate Buffer, pH 3.0.
# H-IR 780 Substrate solution: 10 μM H-IR 780 in the HRP 800 Assay Buffer.
# D-IR 780 Substrate solution: 10 μM D-IR 780 in the HRP 800 Assay Buffer.
# The utility of the H-IR 780 and D-IR 780 as a HRP substrate was tested by reaction of the dye with an enzyme-labeled antibody. The substrate, when oxidized by HRP and hydrogen peroxide, yields a fluorescent signal at approximately 800 nm in the NIR. […] Wells B12, C12 and D12 received 10 μL of PBS buffer (pH 7.2) and were used as a control to measure the background fluorescence. […]
structure (smiles),measurement,setting,value
"CC1(C)C(/C=C/C(=C/C=C2/N(CCCS(=O)(=O)[O-])c3ccc4c(S(=O)(=O)[O-])cc(S(=O)(=O)[O-])cc4c3C2(C)C)c2cccc(CCCCC(=O)O)c2)=[N+](CCCS(=O)(=O)[O-])c2ccc3c(S(=O)(=O)[O-])cc(S(=O)(=O)[O-])cc3c21.[Na+].[Na+].[Na+].[Na+].[Na+] [Compound 3, Sodium 2-((1E,3Z,5E)-3-(3-(4-Carboxybutyl)phenyl)-5-(1,1-dimethyl-6,8-disulfonato-3-(3-sulfonatopropyl)-1H-benzo[e]indol-2(3H)-ylidene)penta-1,3-dienyl)-1,1-dimethyl-3-(3-sulfonatopropyl)-1H-benzo[e]indolium-6,8-disulfonate]",Max. Abs.,[1]; MeOH,680 nm
same,Extinction Coefficient,[1]; MeOH,"229,000"
same,Max. Abs.,[1]; PBS,676 nm
same,Extinction Coefficient,[1]; PBS,"239,000"
"CC1(C)C(/C=C/C(=C/C=C2/N(CCCS(=O)(=O)[O-])c3ccc(S(=O)(=O)[O-])cc3C2(C)C)c2cccc(CCC(=O)O)c2)=Nc2c1cc(Cl)c[n+]2CCCS(=O)(=O)[O-].[Na+].[Na+] [Compound 8, Sodium (E)-2-((2Z,4E)-3-(3-(2-Carboxyethyl)phenyl)-5-(5-chloro-3,3-dimethyl-7-(3-sulfonatopropyl)-3H-pyrrolo[2,3-b]pyridin-7-ium-2-yl)penta-2,4-dienylidene)-3,3-dimethyl-1-(3-sulfonatopropyl)indoline-5-sulfonate]",Max. Abs.,[1]; MeOH,680 nm
same,Max. Emis.,[1]; MeOH,694 nm
same,Extinction Coefficient,[1]; MeOH,"170,000"
same,Max. Abs.,[1]; PBS,672 nm
same,Max. Emis.,[1]; PBS,694 nm
same,Extinction Coefficient,[1]; PBS,"160,000"
[2H]C1(C=CC2=C(c3cccc(F)c3F)C(=CC=C3N(CCC)c4ccccc4C3(C)C)CCC2)N(CCC)c2ccccc2C1(C)C (stereo not drawn) [DIR780F2-P],+Enzyme signal,"HRP; pH 5, Triton X-100 0.01%",111403 and 107251 and 95434 and 93017
same,Mean Background,"HRP; pH 5, Triton X-100 0.01%",17016
same,Mean Signal,"HRP; pH 5, Triton X-100 0.01%",101776
same,Signal-Background,"HRP; pH 5, Triton X-100 0.01%",84761
same,−Enzyme signal,"HRP; pH 5, Triton X-100 0.01%",14729 and 17889 and 16731 and 18713
same,+Enzyme signal,"HRP; pH 5, Triton X-100 0.05%",110308 and 116984 and 91720 and 95384
same,Mean Background,"HRP; pH 5, Triton X-100 0.05%",16011
same,Mean Signal,"HRP; pH 5, Triton X-100 0.05%",103599
same,Signal-Background,"HRP; pH 5, Triton X-100 0.05%",87588
same,−Enzyme signal,"HRP; pH 5, Triton X-100 0.05%",15096 and 16995 and 15697 and 16257
same,+Enzyme signal,"HRP; pH 5, Triton X-100 0.1%",86168 and 78778 and 79940 and 81063
same,Mean Background,"HRP; pH 5, Triton X-100 0.1%",14716
same,Mean Signal,"HRP; pH 5, Triton X-100 0.1%",81487
same,Signal-Background,"HRP; pH 5, Triton X-100 0.1%",66771
same,−Enzyme signal,"HRP; pH 5, Triton X-100 0.1%",14612 and 15268 and 14653 and 14330
same,+Enzyme signal,"HRP; pH 6, Triton X-100 0.01%",65943 and 71002 and 70952 and 72922
same,Mean Background,"HRP; pH 6, Triton X-100 0.01%",13218
same,Mean Signal,"HRP; pH 6, Triton X-100 0.01%",70205
same,Signal-Background,"HRP; pH 6, Triton X-100 0.01%",56987
same,−Enzyme signal,"HRP; pH 6, Triton X-100 0.01%",12646 and 15381 and 12242 and 12600
same,+Enzyme signal,"HRP; pH 6, Triton X-100 0.05%",72420 and 71667 and 65401 and 73540
same,Mean Background,"HRP; pH 6, Triton X-100 0.05%",15498
same,Mean Signal,"HRP; pH 6, Triton X-100 0.05%",70757
same,Signal-Background,"HRP; pH 6, Triton X-100 0.05%",55259
same,−Enzyme signal,"HRP; pH 6, Triton X-100 0.05%",16006 and 17026 and 14644 and 14316
same,+Enzyme signal,"HRP; pH 6, Triton X-100 0.1%",73669 and 63411 and 72029 and 67718
same,Mean Background,"HRP; pH 6, Triton X-100 0.1%",17956
same,Mean Signal,"HRP; pH 6, Triton X-100 0.1%",69207
same,Signal-Background,"HRP; pH 6, Triton X-100 0.1%",51251
same,−Enzyme signal,"HRP; pH 6, Triton X-100 0.1%",21194 and 15983 and 19749 and 14897
CCCN1/C(=C/C=C/C2N(CCC)c3ccccc3C2(C)C)C(C)(C)c2ccccc21 (stereo not drawn) [H-Cy3],fluorescent intensity in LPS treated cells compared to untreated cells,[2],increased fluorescent intensity in the LPS treated cells compared to the untreated cells
"CC1(C)\C(=C/C=C(Br)/C=C/C2N(CCCCCCO)c3ccccc3C2(C)C)N(CCCCCCO)c2ccccc21 (stereo not drawn) [H-IR650DIOL, 6-((E)-2-((2Z,4E)-3-bromo-5-(1-(6-hydroxyhexyl)-3,3-dimethylindolin-2-yl)penta-2,4-dien-1-ylidene)-3,3-dimethylindolin-1-yl)hexan-1-ol]",cell permeability,[3],cell permeable
same,water solubility,[4],improved water solubility
CC1(C)\C(=C/C=C(Br)/C=C/C2N(CCCCCCO)c3ccc4ccccc4c3C2(C)C)N(CCCCCCO)c2ccc3ccccc3c21 (stereo not drawn) [H-IR680DIOL],cell permeability,[3],cell permeable
same,water solubility,[4],improved water solubility
CCCN1/C(=C/C=C2\CCCC(/C=C/C3N(CCC)c4ccccc4C3(C)C)=C2c2cccc(F)c2F)C(C)(C)c2ccccc21 (stereo not drawn) [H-IR780F2],fluorescent intensity in LPS treated cells compared to untreated cells,[2],increased fluorescent intensity in the LPS treated cells compared to the untreated cells
same,"Western blot signal, background and linearity","β actin in A431 lysate; 10 μM substrate, 50-200 μM H2O2, 5 min incubation",good signal with high linearity for lower signals and moderate linearity for higher signals
same,Lower Limit of Detection (LLD),β actin in A431 lysate; Western blots,1.5 ng
same,sensitivity compared to chemiluminescent detection (luminol-based reagent system),β actin in A431 lysate; Western blots,32 fold
same,sensitivity compared to fluorescent dye-conjugated secondary antibody detection,β actin in A431 lysate; Western blots,16 fold
CCCN1/C(=C/C=C2\CCCC(/C=C/C3N(CCC)c4ccccc4C3(C)C)=C2Cl)C(C)(C)c2ccccc21 (stereo not drawn) [H-IR 780],fluorescence signal at approximately 800 nm versus GAM-HRP concentration,[5],intensity of the fluorescence signal increased with increasing concentration of GAM-HRP
